Patent US20130303490A1, “Inhibitors of HIV Infections and uses thereof” (Centre National De La Recherche Scientifique-CNRS, priority 2010, published 2013)
Entries after “also recorded” stand apart in the source; their conditions may differ. Read-outs that look alike come from different tables or passages of the source.

Columns and labels:
[1] = test system: Ad8-luc virus in HOS CCR5 lacZ line; experiment: Infection of HOS CCR5 lacZ cells (not expressing S1PR1) with Ad8-luc virus (luciferase activity); type: cell-based, HIV-1
[2] = test system: Ad8-luc virus in peripheral blood mononuclear cells (PBMCs); experiment: Infection of PBMCs with Ad8-luc virus (luciferase activity); type: cell-based, HIV-1
Protocol: The HOS-CD4 line (AIDS Reagent Program, Rockville, Md.) and the HEK-293T line (simian virus 40 T antigen-transformed human embryonic kidney 293T, Genethon) are cultured in DMEM medium supplemented with 10% of FCS (fetal calf serum), 10 mM of glutamax-1, 100 U/ml of penicillin and 100 μg/ml of streptomycin. The HEK-293T CD4+ CCR5+ line (gift from Martine Biard-Piechaczyk, Institute of Biology, Montpellier, France) was obtained by transfection of CD4 and CCR5 genes using the HEK-293T line. The human PBMCs in culture are isolated from blood of healthy donors by density centrifugation on lymphocyte separation medium (Eurobio) and cultured in RPMI medium supplemented like the DMEM at 37° C., 5% CO2.

[3] = test system: HIV-1 strain JR-CSF (R5 strain); experiment: Humanized SCID mice (hu-PBL-SCID) infected with HIV-1, viral load by qPCR; type: in vivo, mouse (SCID, grafted with human PBMCs); settings: FTY720 0.3 mg per kg per day by gavage from D-1, viral load D6, 9, 12; p=0.023 (FIG. 6)
Protocol: SCID mice have the cb17/Icr-Prkdc^scid/Crl genotype. These immunodepressed mice are housed in an A3/L3 animal house in cages with a filter lid, in a ventilated cage rack. After one week of acclimatization, the animals are reconstituted by intraperitoneal injection of 30×10^6 PBMCs obtained by density centrifugation of the leukocytes of an uncertified cytapheresis annulus from a healthy volunteer donor. The reconstitution is evaluated on the 13th day by assaying the human immunoglobulins (Igs) present in the serum of the mice by means of an Elisa assay using the anti-human whole Ig-PO antibody (MP Biomedical, cat n° 55230). The mice whose total Ig concentration is greater than 100 μg/ml are kept for the experiment, and are infected 14 days after the reconstitution with the HIV-1 strain JR-CSF (R5 strain) at 1000 TCID50 in 100 μl. Daily gavage with 100 μl of FTY720 (Cayman, sold by Interchim ref. BM8045) dissolved at 60 μg/ml in distilled water is begun one day before the infection and continued for 12 days. The untreated mice are given the same volume of distilled water by gavage. […] The viremies are evaluated by quantification of the viral ARN in the plasma of the mice by qPCR with the AmpliPrep/COBAS TaqMan HIV-1 test (Roche Diagnostics, ref. 05212294190). […]

[4] = test system: Ad8-luc virion (nonreplicative R5-pseudotyped HIV-1) in HEK-293T CD4+ CCR5+ cells; experiment: Infection of S1PR1-transfected HEK-293T CD4+ CCR5+ cells with Ad8-luc virion (luciferase activity); type: cell-based
Protocol: In order to test the influence of the expression of S1PR1 on infection with HIV-1, 50 000 HEK-293T CD4+ CCR5+ cells were transiently transfected by lipofection, by incubating them for 24 hours with a mixture of 50 ng of CMV-S1PR1 plasmid, 20 ng of the pRL-TK-Renilla Luciferase plasmid (Promega) and 0.5 μl of lipofectamine (Lipofectamine™ 2000, Invitrogen) in 150 μl of DMEM medium, 10% FCS, in a 96-well plate, incubated beforehand with a solution of D-polylysine for 30 min. […] 24 h after the transfection, the wells are washed with DMEM (BioWhittaker), and then the cells are infected with 40 ng of the Ad8-luc virion in 180 μl of culture medium. […] 24 h after the infection, the cells are washed once with culture medium, and put back in culture with 200 μl of DMEM, 10% FCS. 40 h to 48 h after the infection, the cells are washed once with PBS, and lysed with 50 μl of buffer, and then the Firefly and Renilla luciferase activities are measured sequentially in a luminometer using the Dual-Luciferase® Reporter Assay system (Promega, cat: E1910). The Renilla luciferase activity is used as a measure of the level of cell metabolism.

[5] = HOS CCR5 lacZ cells not expressing S1PR1, 33 μM preincubation for one hour (FIG. 3), p<0.01

Q: For `FC(F)(F)c1cccc(-c2noc(-c3cc(-c4ccccc4)c(C(F)(F)F)s3)n2)c1` [SEW2871], which “decrease of the HIV infection” value [1, 5] is on record?
A: Its value is “No significant difference; also recorded: does not significantly modify the infection”.

Q: What does the source list for `CCCCCCCCCCCCC/C=C/[C@@H](O)[C@@H](N)COP(=O)(O)O` [Sphingosine-1-phosphate, sphingosine-1-phosphate]?
A: decrease of the HIV infection [1, 5]: approximately 50%; inhibition at 1 µM ([2]; Human immunodeficiency virus 1, PBMC, read-out: inhibition of the infection): ~60%

Q: Which “decrease of the HIV infection” value [1, 5] does the source give for `CCCCCCCCc1ccc(CCC(N)(CO)CO)cc1.Cl` [FTY720, 2-amino-2-[2-(4-octylphenyl)ethyl]propane-1,3-diol] here?
A: Its value is “approximately 50%”.

Q: And the “viremia / infection of the treated animals versus untreated group” value [3]?
A: Its value is “clear decrease in viremia; also recorded: significant decrease”.

Q: For `CCCCCCCCc1ccc(CC[C@](N)(CO)COP(=O)(O)O)cc1` [FTY720-P], which “decrease of the HIV infection” value [1] is on record?
A: Its value is “approximately 50%”.

Q: What about the “reduction of infection compared with the empty plasmid control” value ([4]; S1PR1-expressing HEK-293T CD4+ CCR5+ cells, FTY720-P 80 ng/ml for 30 min before addition of the virus, unstimulated S1PR1 alone gives 60%) of the same molecule?
A: Its value is 90%.

Q: And the “inhibition of the infection” value ([2]; PBMCs from a healthy donor, 1 μM preincubation, Ad8-luc for 72 h (FIG. 4))?
A: The value was “approximately 60%”.

B1: MIP1-β: a CCR5 ligand known to inhibit HIV infection (R&D systems) (protein, UniProt P13236 24-92, looked up)
C-C motif chemokine 4: APMGSDPPTACCFSYTARKLPRNFVVDYYETSSLCSQPAVVFQTKRSKQVCADPSESWVQEYVYDLELN
Q: For B1, which “decrease in infection compared with that of FTY720-P” value ([4]; same conditions, anti-CCR5 antibody 10 μg/ml, MIP-1β 100 ng/ml, 30 min before infection) is on record?
A: Its value is “of the same level”.
